One series relates to Swiss 3T3 cells. Kind of series: Immunofluorescence, cell morphology and bradykinin-mediated activation. Conditions: for changes to cell morphology: after 4 h of treatment, more drastic after six hours. In kind it is cell-based. As for the experimental part:
Immunofluorescence: Serum-starved Swiss 3T3 cells were pretreated with compound for 2 h before the addition of bradykinin (100 ng/mL) for 20 min. Cells were fixed in 4% paraformaldehyde for 15 min at RT and stored in PBS. Fixed cells were treated with 0.5% Triton for 30 min at RT, 100 mM Glycine 30 min at RT, and 10% BSA for 30 min at 37° C. Primary antibody for GM130 (1:1000, BD Biosciences, Franklin Lakes, New Jersey, United States of America) was used to probe for 1 h at RT followed by CY3-conjugated secondary antibody (1:1000) for 1 h at RT in the dark. Actin was stained with fluorescein-conjugated phalloidin (1:300). Hoechst (1:2500) was used to stain the nuclei. Coverslips were mounted onto slides using antifade medium from Life Technologies (Carlsbad, California, United States of America). Images were taken with a Zeiss Axiovert S100 microscope (Carl Zeiss; Thornwood, New York, United States of America).

The subject of a further series is C57BL/6 mice. Kind of series: Toxicity experiment, I.P. injection. In kind it is in vivo. Conditions: 5 minutes to 24 hours. As for the experimental part: ZCL 278 Toxicity Experiment: Individual C57BL/6 mice of 4-6 months of age from Jackson Laboratory (Bar Harbor, Maine, United States of America) were submitted to ZCL278 treatment for 5 minutes, 30 minutes, 2 hours and 24 hours. The dosage of ZCL278 for each mouse was 0.8 mg/g body weight delivered via intraperitoneal (I.P.) injection of a 15 mg/ml solution of ZCL278 was dissolved in the sesame oil (10% DMSO).
ZCL 279 Toxicity Experiment: Individual C57BL/6 mice of 4-6 months of age from Jackson Laboratory (Bar Harbor, Maine, United States of America) were submitted to ZCL279 treatment for 5 minutes, 30 minutes, 2 hours and 24 hours. The dosage of ZCL279 for each mouse was 0.6 mg/g body weight delivered via intraperitoneal (I.P.) injection of a 15 mg/ml solution of ZCL279 was dissolved in the sesame oil (10% DMSO).
ZCL367 Toxicity Experiment: Individual C57BL/6 mice of 4-6 months of age from Jackson Laboratory (Bar Harbor, Maine, United States of America) were submitted to ZCL367 treatment for 1 hour or 2 weeks. The dosage of ZCL367 for each time period was 0.4 mg/g body weight or 0.8 mg/g body weight, delivered via I.P. injection. […] Mice were sacrificed after end of 1 hour or 2 weeks.

In the next series the test system is mice. Kind of series: Long-term survival after one injection. Type of series: in vivo. Conditions: mouse, in vivo. As for the experimental part: Long-term Survival. Groups of 10 mice were treated with one injection of ZCL278 (up to 0.8 mg/g), ZCL279 (up to 0.6 mg/g), or ZCL367 (up to 1.6 mg/g) to examine potential lethal dosage (the maximal dosage tested when no mice died). […] Durations longer than 3 months have not been tested. As a reference, working dosage for the behavioral assessment described below used 20 ug/g for injection, […] than the highest dosage of 0.8 mg/g tested in the long-term survival experiment.

In the next series the target is Cdc42 (Homo sapiens, UniProt P60953). Kind of series: mant-GTP binding to Cdc42 with or without GEF/DH domain. In kind it is biochemical. On the set-up: purchased Cytoskeleton Inc. The note with it: 5-500 μM. As for the experimental part: Cdc42 (1 μM) was incubated with mant-GTP (1.5 μM) and varying concentrations of ZCL278, ZCL279, or ZCL367 (5-500 μM). Fluorescent readings were taken every minute for 10 m to acquire the baseline. The GEF/DH domain (0.08-0.2 μM) was added followed by readings taken every minute for another 30 m. The linear phase was calculated from within the time period of 12-22 m. Cdc42 (1 μM) was incubated with mant-GTP (1.5 μM) and varying concentrations of ZCL278, ZCL279, or ZCL367 (5-500 μM). Fluorescent readings were taken every minute for 30 m to monitor the binding of mant-GTP in the absence of GEF/DH domain.

A further series relates to 3×Tg-AD mice. Kind of series: Morris water maze test. In kind it is in vivo. An excerpt: Six-month-old C57/BL6 (WT) and 3×Tg-AD mice with an average weight of 24 g from Jackson Laboratory (Bar Harbor, Maine, United States of America) were used. The 3×Tg-AD mice in hybrid 129/C57BL/6 background contain two mutant human transgenes, hAPP harboring Swedish mutation (hAPPswe) and mutant htau (htau301L) under a neuron-specific promoter, and also contain the knock-in mutant presenilin 1 (PS1M146V). See Oddo et al. (2003) Neuron 39:409-421). 3×Tg-AD mice were received from Jackson Laboratory as Psen1 B6:129-Psen1<tmMpm>Tg(APPSwetauP301L)1Lfa/J and the wild type control as SF2: (B6129SF1/J+p+Tyr-c+Mgf-SIJ)F2. All mice were subjected to two weeks of training for familiarizing behavioral test procedures. Subsequently, mice were assayed to establish a baseline of behavior tests before ZCL compound treatment. Then, mice were separated into three treatment groups (Control, ZCL278 and ZCL279). […]
Mice were trained to swim to a 14 cm diameter circular clear Plexiglas platform submerged 1.5 cm beneath the surface of the water and invisible to the mice while swimming. […] Retention of the spatial training was assessed at 1.5 hr and again at 24 hr after the last training trial. […] Mice were monitored by a camera mounted in the ceiling directly above the pool, and all trials were stored on videotape for subsequent analysis.

Each structure is given as a SMILES string.

Chain of Cdc42 (P60953 whole entry, the tested form may be a part): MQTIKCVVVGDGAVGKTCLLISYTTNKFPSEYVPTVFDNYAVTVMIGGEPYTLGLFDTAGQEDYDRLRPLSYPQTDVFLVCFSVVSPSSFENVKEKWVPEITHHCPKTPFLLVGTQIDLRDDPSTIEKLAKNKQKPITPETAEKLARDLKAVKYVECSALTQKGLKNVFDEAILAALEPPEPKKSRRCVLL

For the compound `Cc1cc(C)nc(NS(=O)(=O)c2ccc(NC(=S)NC(=O)COc3ccc(Br)cc3Cl)cc2)n1` [ZCL278, 4-(3-(2-(4-bromo-2-chloro-phenoxy)-acetyl)-thioureido)-N-(4,6-dimethylpyrimidin-2-yl)-benzenesulfonamide], in the series on Swiss 3T3 cells (Swiss 3T3 cells), the “kind of morphology change” value is “increase in ramification”. For the same compound, the bradykinin-mediated activation entry in the series with Swiss 3T3 cells (Swiss 3T3 cells, bradykinin 100 ng/mL) is on record as “inhibit bradykinin-mediated activation”. For the same compound, the “changes to cell morphology” value in the series on Swiss 3T3 cells was “significant changes to cell morphology”. The “gross anatomic toxicity (plasma, liver, kidney and brain tissues)” value in the series with C57BL/6 mice (0.8 mg/g body weight I.P.) is recorded as “no gross anatomic toxicity”. In addition, in the series with mice, the “Lethal Dosage” value came to 0.8 mg/g and the “Longest Dosing Duration” value came to 3 months. Also, the “effect on Cdc42 (mant-GTP binding)” value on Cdc42 (in the absence of GEF domain) is “activates Cdc42”. The “effect on Cdc42 (mant-GTP binding)” value at Cdc42 (in the presence of GEF domain) is recorded as “acts as an inhibitor”.
As to `O=S(=O)(Nc1ccccc1O)c1ccc2oc3ccc(S(=O)(=O)Nc4ccccc4O)cc3c2c1` [ZCL279, N^2,N^8-bis(2-hydroxyphenyl)dibenzo[b,d]furan-2,8-disulfonamide], the “kind of morphology change” value in the series with Swiss 3T3 cells (Swiss 3T3 cells) is “reduction in cell body size and formation of elongated processes”. Moreover, in the series with Swiss 3T3 cells, the “changes to cell morphology” value is on record as “significant changes to cell morphology”. For the same compound, the “gross anatomic toxicity (plasma, liver, kidney and brain tissues)” value with C57BL/6 mice (0.6 mg/g body weight I.P.) is listed as “no gross anatomic toxicity”. Also, in the series with mice, the “Lethal Dosage” value worked out at 0.6 mg/g and the “Longest Dosing Duration” value came out at 3 months. The “spatial memory ability compared with WT mice” value with 3×Tg-AD mice (3×Tg AD mice, Day 4) is reported as “appeared similar to WT mice”. Moreover, the “spatial memory ability (latency in finding the submerged platform)” value with 3×Tg-AD mice (AD mouse model) is given as “improves spatial memory ability”. On Cdc42 (in the absence of GEF domain), the “effect on Cdc42 (mant-GTP binding)” value is “has no effect”. Besides, the “effect on Cdc42 (mant-GTP binding)” value at Cdc42 (in the presence of GEF domain) is reported as “activates Cdc42”.

The values are drawn from patent US12285393B2, “Roles of modulators of intersectin-Cdc42 signaling in Alzheimer's disease” (priority 2017, dated 2025).
